{
  "source": "patent US20260062432A1",
  "about": "(REXPHARMTECH CO., LTD, priority 2022, published 2026)",
  "key": {"[1]": {"system": "patients with mild cognitive impairment or Alzheimer's disease", "conditions": "cited from earlier work"}, "[2]": {"assay": "Solubility test (saturated solution, HPLC)", "format": "physicochemical", "method": "After diluting a reference solution with 50% acetonitrile, a calibration curve (range: […]) was prepared by USP compendial HPLC analysis, and the concentration of the saturated solution was obtained from a first-order function of the prepared calibration curve."}, "[3]": {"assay": "Stability test under harsh conditions (60° C.±2° C.), HPLC analysis", "format": "physicochemical", "conditions": "for purity (HPLC), Day 3 / purity (HPLC), Day 7 / purity (HPLC), Day 14 / purity (HPLC), Day 21 / purity (HPLC), Initial: harsh conditions 60° C.±2° C.; for purity change: stability test for 21 days under harsh conditions", "method": "A stability test of a pharmaceutical means to confirm the stability of constant quality over time under certain conditions to set the storage method and shelf life of the pharmaceutical. Therefore, an expiration date of a product is set by setting appropriate specifications and evaluating conformance to the specifications by evaluating significant changes based on a prescribed analytical method.\nSpecifically, a stability test was conducted under harsh conditions (60° C.±2° C.) according to the ICH guidelines, and an analysis was performed by high-performance liquid chromatography (HPLC) analysis."}, "[4]": {"system": "mouse model of Alzheimer's disease", "conditions": "cited from earlier work"}, "[5]": {"conditions": "versus thiamine hydrochloride or thiamine nitrate; cited from earlier work"}, "[6]": {"system": "p-ERK, p-AKT, and NR2B in primary cultured hippocampal neurons", "assay": "Immunoblot test: activation of neuroplastic factors in hippocampal cells", "format": "cell-based, SD rats (Sprague-Dawley rats)", "conditions": "1 or 3 μg/ml, 10 minutes, FIG. 5", "method": "All cells used in the experiment were primary cultured hippocampal neurons. Hippocampal neurons were isolated from embryos of SD rats (Sprague-Dawley rats, Samtaco Korea) on gestation Day 18 and Day 19. A hippocampal nerve tissue of fetal rats was physically separated by using a dissecting microscope and then placed in HBSS (Hank's Balanced Salt Solution) supplemented with 0.25% trypsin and treated at 37° C. for 10 minutes. After washing the hippocampal nerve tissue with HBSS, single cells were isolated by carefully pipetting with a pipette. The isolated cells were cultured by filling a 60 mm cell culture dish, coated with Poly-L-lysine (0.5 mg/ml) in advance, with Neurobasal/B27 medium (0.5 mM L-glutamine, 25 μM glutamate, 25 μM 2-mercaptoethanol, 100 U/mL penicillin, 100 μg/ml streptomycin) at 5% CO2 and 37° C. The medium was exchanged on cell culture Day 4 and Day 11, and the cells were used in the experiment on culture Day 14. To confirm p-ERK, p-AKT, and NR2B in cells, the medium of primary cultured hippocampal neurons cultured for 14 days was changed to a B-27-free medium at least 1 hour before drug treatment. […] The disrupted cell solution was quantified according to a protein quantification method, and then for protein analysis (immunoblotting), the protein was subjected to electrophoresis on 8% and 10% SDS-polyacrylamide gel. The membrane was subjected to a reaction at room temperature for 1 hour by adding 5% skim milk. A primary antibody was treated with tris buffered saline at a ratio of 1:1000, subjected to a reaction at 4° C. for 24 hours, and then washed three times with TBST (25 mM Tris-Hcl, 140 mM NaCl, 0.1% Tween 20, pH 7.5). After that, a secondary antibody was subjected to a reaction with Anti-Rabbit or Anti-Mouse antibody (HRP-linked) in 3% skim milk at a ratio of 1:5000 for 1 hour. The coupled antibody complex was confirmed by using West Femto Maximum Sensitivity Substrate (Thermo), and the results are shown in FIG. 5."}},
  "note": "Where a name gives a salt, the structure may show the parent alone.",
  "data": [
    {"smiles": "C/C(=C(\\CCOP(=O)(O)O)SC(=O)c1ccccc1)N(C=O)Cc1cnc(C)nc1N", "note": "[Comparative Example, benfotiamine]", "values": [
      {"measurement": "rate of functional decline", "setting": "[1]", "result": "effective and safe in slowing down the rate of functional decline"},
      {"measurement": "Solubility", "setting": "[2]; Purified water", "result": 3000, "unit": "µg/mL"},
      {"measurement": "Solubility", "setting": "[2]; pH 1.2", "result": 5600, "unit": "µg/mL"},
      {"measurement": "Solubility", "setting": "[2]; pH 4.0", "result": 3100, "unit": "µg/mL"},
      {"measurement": "Solubility", "setting": "[2]; pH 6.8", "result": 6600, "unit": "µg/mL"},
      {"measurement": "solubility at 1 h", "setting": "[2]; purified water and solutions at pH 1.2, pH 4.0 and pH 6.8, aqueous buffer, thermodynamic from solid, purified water and solutions at pH 1.2, pH 4.0 and pH 6.8, read-out: solubility (range over all media)", "result": "3000 to 6600", "unit": "µg/mL"},
      {"measurement": "purity (HPLC), Day 3", "setting": "[3]", "result": 99.1},
      {"measurement": "purity (HPLC), Day 7", "setting": "[3]", "result": 98.6},
      {"measurement": "purity (HPLC), Day 14", "setting": "[3]", "result": 97.5},
      {"measurement": "purity (HPLC), Day 21", "setting": "[3]", "result": 97.0},
      {"measurement": "purity (HPLC), Initial", "setting": "[3]", "result": 99.5},
      {"measurement": "purity change", "setting": "[3]", "result": 2.5, "unit": "%"},
      {"measurement": "level of phosphorylated tau", "setting": "[4]", "result": "reduces"},
      {"measurement": "number of amyloid plaques", "setting": "[4]", "result": "reduces"},
      {"measurement": "spatial memory", "setting": "[4]", "result": "improves spatial memory in a dose-dependent manner"},
      {"measurement": "bioavailability higher than thiamine hydrochloride or thiamine nitrate", "setting": "[5]", "result": "about 3.6 times"}
    ]},
    {"smiles": "C/C(=C(\\CCOP(=O)(O)O)SC(=O)c1ccccc1)N(C=O)Cc1cnc(C)nc1N", "note": "[Example 1, benfotiamine choline salt]", "values": [
      {"measurement": "Solubility", "setting": "[2]; Purified water", "result": 652100, "unit": "µg/mL"},
      {"measurement": "Solubility", "setting": "[2]; pH 1.2", "result": 898400, "unit": "µg/mL"},
      {"measurement": "Solubility", "setting": "[2]; pH 4.0", "result": 690200, "unit": "µg/mL"},
      {"measurement": "Solubility", "setting": "[2]; pH 6.8", "result": 820000, "unit": "µg/mL"},
      {"measurement": "solubility (in words)", "setting": "[2]; purified water and all solutions at pH 1.2, pH 4.0, and pH 6.8", "result": "very high solubility"},
      {"measurement": "purity (HPLC), Day 3", "setting": "[3]", "result": 99.2},
      {"measurement": "purity (HPLC), Day 7", "setting": "[3]", "result": 99.1},
      {"measurement": "purity (HPLC), Day 14", "setting": "[3]", "result": 99.0},
      {"measurement": "purity (HPLC), Day 21", "setting": "[3]", "result": 98.2},
      {"measurement": "purity (HPLC), Initial", "setting": "[3]", "result": 99.3},
      {"measurement": "purity change", "setting": "[3]", "result": 1.1, "unit": "%"},
      {"measurement": "level of NR2B", "setting": "[6]", "result": "effectively increased"},
      {"measurement": "level of phosphorylated Akt", "setting": "[6]", "result": "effectively increased"},
      {"measurement": "level of phosphorylated ERK", "setting": "[6]", "result": "effectively increased"}
    ]}
  ]
}
